Positions count from the first letter of the chain named.
Key:
GAL2R mutants [1] = target: T1, GAL2R mutants (Homo sapiens, UniProt O43603, L255A); assay: Calcium assay, HEK293/Gα16 cells, GAL2R mutants; assay type: cell-based; conditions: GAL2R L2556.54A
T1 construct: expressed in transfected cells; host or cells: HEK293
T1 sequence (O43603 1-387 L255A): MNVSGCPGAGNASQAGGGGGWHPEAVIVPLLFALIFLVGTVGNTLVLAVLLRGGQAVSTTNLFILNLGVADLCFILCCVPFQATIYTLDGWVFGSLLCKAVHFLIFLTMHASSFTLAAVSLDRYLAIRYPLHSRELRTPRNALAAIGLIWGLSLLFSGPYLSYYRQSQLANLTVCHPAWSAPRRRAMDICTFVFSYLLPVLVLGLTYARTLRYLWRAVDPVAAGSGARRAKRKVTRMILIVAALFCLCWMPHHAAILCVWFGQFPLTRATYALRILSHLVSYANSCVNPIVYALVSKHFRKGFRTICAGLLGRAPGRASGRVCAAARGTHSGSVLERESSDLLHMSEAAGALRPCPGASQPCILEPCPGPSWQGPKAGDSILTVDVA

GAL2R mutants [2] = target: T2, GAL2R mutants (Homo sapiens, UniProt O43603, L266A); assay: Calcium assay, HEK293/Gα16 cells, GAL2R mutants; assay type: cell-based; conditions: GAL2R L266ECL3A
T2 construct: expressed in transfected cells; host or cells: HEK293
T2 sequence (O43603 1-387 L266A): T1 sequence (O43603 1-387 L255A) with A255L, L266A

GAL2R mutants [3] = target: T3, GAL2R mutants (Homo sapiens, UniProt O43603, Q82A); assay: Calcium assay, HEK293/Gα16 cells, GAL2R mutants; assay type: cell-based; conditions: GAL2R Q822.61A
T3 construct: expressed in transfected cells; host or cells: HEK293
T3 sequence (O43603 1-387 Q82A): T1 sequence (O43603 1-387 L255A) with Q82A, A255L

GAL2R mutants [4] = target: T4, GAL2R mutants (Homo sapiens, UniProt O43603, T267A); assay: Calcium assay, HEK293/Gα16 cells, GAL2R mutants; assay type: cell-based; conditions: GAL2R T2677.28A
T4 construct: expressed in transfected cells; host or cells: HEK293
T4 sequence (O43603 1-387 T267A): T1 sequence (O43603 1-387 L255A) with A255L, T267A

GAL2R mutants [5] = target: T5, GAL2R mutants (Homo sapiens, UniProt O43603, Y164A); assay: Calcium assay, HEK293/Gα16 cells, GAL2R mutants; assay type: cell-based; conditions: GAL2R Y1644.64A
T5 construct: expressed in transfected cells; host or cells: HEK293
T5 sequence (O43603 1-387 Y164A): T1 sequence (O43603 1-387 L255A) with Y164A, A255L

GAL2R over GAL1R = conditions: cross-reactivity to galanin receptors; cited from earlier work
Excerpt: In contrast, L^4P contacts with equivalent ECL2 residues with weaker hydrophobicity (L169^ECL2, A170^ECL2, and L172^ECL2) in GAL2R (Fig. 3e, Supplementary Fig. 4b). The structural observation is coincident with our peptide truncation assay.

[6] = response of 100 μM spexin compared to WT, mean ± S.E.M.
[7] = response of 100 μM spexin compared to WT

Emax (GAL2R mutants [1]; [6]): 26.65±5.9%
Emax (GAL2R mutants [1]; spexin, replicate 1): 16.7892%
EC50 (GAL2R mutants [1]; spexin, replicate 2): 0.2454 µM
Emax (GAL2R mutants [1]; spexin, replicate 2): 26.0726%
EC50 (GAL2R mutants [1]; spexin, replicate 3): 0.8451 µM
Emax (GAL2R mutants [1]; spexin, replicate 3): 37.0775%
Emax (GAL2R mutants [2]; [6]): 103.14±6.2%
EC50 (GAL2R mutants [2]; spexin, replicate 1): 25.14 µM
Emax (GAL2R mutants [2]; spexin, replicate 1): 98.5714%
EC50 (GAL2R mutants [2]; spexin, replicate 2): 15.28 µM
Emax (GAL2R mutants [2]; spexin, replicate 2): 95.5224%
EC50 (GAL2R mutants [2]; spexin, replicate 3): 11.99 µM
Emax (GAL2R mutants [2]; spexin, replicate 3): 115.328%
Emax (GAL2R mutants [3]; spexin, replicate 1): no response
Emax (GAL2R mutants [3]; spexin, replicate 2): no response
Emax (GAL2R mutants [3]; spexin, replicate 3): no response
Emax (GAL2R mutants [4]; [6]): 19.9±3.4%
EC50 (GAL2R mutants [4]; spexin, replicate 1): 0.0008339 µM
Emax (GAL2R mutants [4]; spexin, replicate 1): 26.5588%
EC50 (GAL2R mutants [4]; spexin, replicate 2): 10.49 µM
Emax (GAL2R mutants [4]; spexin, replicate 2): 17.6424%
EC50 (GAL2R mutants [4]; spexin, replicate 3): 1.506 µM
Emax (GAL2R mutants [4]; spexin, replicate 3): 15.5083%
Emax (GAL2R mutants [5]; spexin, replicate 1): no response
Emax (GAL2R mutants [5]; spexin, replicate 2): no response
Emax (GAL2R mutants [5]; spexin, replicate 3): no response
Substance: spexin
Emax (GAL2R mutants [3]; [7]): NR (NR, no response, refers to response < 10% compared to WT receptor (spexin at 100 μM))
Emax (GAL2R mutants [5]; [7]): NR (NR, no response, refers to response < 10% compared to WT receptor (spexin at 100 μM))
affinity for GALR2 versus GALR1 (GAL2R over GAL1R): high affinity for GALR2 but not GALR1

Reference: PMC8924211 (Nature Communications, 2022)
